Assay results published in patent publication US12473584B2, “Method for detecting the presence, identification and quantification in a blood sample of anticoagulants which are blood coagulation enzymes inhibitors, and means for the implementation thereof” (DIAGNOSTICA STAGO, priority 2018, dated 2025).

Biological target: T1, bovine factor Xa (Bos taurus, UniProt P00743)
T1 construct: (bovine factor Xa); purchased Stago (Diagnostica Stago) STA®—Liquid Anti-Xa commercial kit (catalogue number not given)
T1 sequence (P00743 234-492 limits assumed): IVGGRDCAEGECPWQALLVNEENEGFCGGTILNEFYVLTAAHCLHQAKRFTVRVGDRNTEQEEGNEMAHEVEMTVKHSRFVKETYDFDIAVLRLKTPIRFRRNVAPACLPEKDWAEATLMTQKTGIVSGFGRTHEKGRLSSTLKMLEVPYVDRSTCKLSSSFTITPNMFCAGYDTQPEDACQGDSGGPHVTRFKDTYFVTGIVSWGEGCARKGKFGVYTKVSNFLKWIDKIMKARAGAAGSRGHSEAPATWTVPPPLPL
T1 sequence (P00743 41-180 limits assumed): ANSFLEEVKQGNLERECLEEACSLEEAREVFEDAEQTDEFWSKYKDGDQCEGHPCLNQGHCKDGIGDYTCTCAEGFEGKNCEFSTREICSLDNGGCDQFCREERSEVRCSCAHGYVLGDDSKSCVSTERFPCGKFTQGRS
Assay: competitive enzymatic assay, enzyme-substrate reaction (universal methodology, STA-Liquid Anti-Xa kit)
Assay type: biochemical
Conditions: bovine factor Xa [E]≈10 nM, substrate [S]≈482 μM, 37° C.
Method: In accordance with this particular embodiment, the in vitro measurement for the detection, the identification, and the quantification of synthetic inhibitors of factor Xa was carried out in accordance with the following principle: • 25 μL of a plasma sample suspected of containing a heparin or an anti-Xa DOAC was diluted in 25 μL of Owren Koller buffer (TOK), then placed in a consumable; • 150 μL of “Substrate” reagent (MAPA-Gly-Arg-pNA) (reagent in the STA®—Liquid Anti-Xa commercial kit) specific for factor Xa was added to the reaction mixture; • an incubation step of 240 seconds raised the reaction mixture to 37° C.; • 150 μL of the reagent “F. Xa” (bovine factor Xa) (reagent in the STA®—Liquid Anti-Xa commercial kit) was added to the reaction mixture, thereby initiating competition between the inhibition reaction and the enzymatic reaction; • the measurement per se was then carried out over 156 seconds: factor Xa transforms the substrate into product while at the same time being inhibited by the heparin or the DOAC if they are present in the sample. […]

MAPA-Gly-Arg-pNA
Michaelis constant KM associated with the enzyme-substrate reaction: ~500 µM | catalytic constant kcat associated with the enzyme-substrate reaction: approximately 400 s-1
